Patent US20240374626A1, “METHODS OF ENHANCING MILK PRODUCTION IN LACTATING MAMMALIAN SUBJECTS” (priority 2023, published 2024)

Tests used:
[1] = tested on: γH2AX; assay: Contralateral intraductal injection: γH2AX IHC in CK8+ luminal cells of MG; format: in vivo, mouse; conditions: doxorubicin IDI (1.5 μg per gland) at PD12.5 vs contralateral DMSO vehicle, 24 h post-injection (PD13.5)
Description: (§1) Nulliparous analysis was performed using adult (10-12-week-old) female mice. For timed pregnancies and lactation analysis, CD-1 pregnant adult females were obtained from Charles Rivers. Embryos were examined at the time of mammary gland harvesting to confirm pregnancy state. […] Plugged mice were considered to be PD0.5 on the day of the observed plug. All females used in this study were age matched.
Mice were anesthetized with isoflurane (VetOne, 501017) Prior to intraductal injections, hair was removed from around the nipples using Nair hair remover. Injections into the duct of the nipple were performed with 33 G needles (Hamilton, 7803-05) and a volume of 40 μl per gland. Right inguinal, abdominal and thoracic glands were injected with doxorubicin (1.5 μg per gland, Cayman Chemical, 15007), nucleosides (40 μl per gland, Millipore-Sigma, ES-008-D) or Mk-1775 (50 μg per gland, Cayman Chemical, 21266), and left glands were injected with PBS or DMSO (Thermo Scientific, BP231) diluted in PBS.
Mammary gland tissue was fixed in 10% neutral buffered formalin (EMD Millipore, MR0458682) at 4° C. overnight. Fixation was quenched using 0.2% glycine (Fisher Scientific, BP381) in PBS, for 1 h at room temperature. […] Integrated density of nuclear γH2AX and pATR was quantified using ImageJ.

[2] = tested on: HC11 cells; assay: Visualization of FACS-purified HC11 subpopulations sorted on DNA content (nuclei number); format: cell-based, mouse; conditions: HC11, doxorubicin 50 nM, FACS-purified population
Description: […] Drugs were maintained through the differentiation process and added with every change of media.
Mammary gland CK8+ epithelial cells or HC11 were sorted based on DNA content using BD FACS Aria II Cell Sorter. After sorting, cells were stained in suspension using Phalloidin-iFluor 488 Reagent (Abcam, ab176753) for 30 min at room temperature in darkness. Cells were spined down onto microscopy slides (Fisher, 12-550-15) using Cytospin 2 (Shandon, 599X52) at 500 rpm for 3 min. Cells were mounted using fluoromount-G (Southern Biotech, 0100-01) and visualized using Zeiss Axio Imager Microscope.

[3] = tested on: MG alveoli; assay: Contralateral intraductal injection: milk staining (IHC) integrated density per alveolus; format: in vivo, mouse; conditions: Mk-1775 IDI at PD16.5 vs contralateral DMSO, LD5 MGs
Description: as §1
Mice were anesthetized with isoflurane (VetOne, 501017) Prior to intraductal injections, hair was removed from around the nipples using Nair hair remover. Injections into the duct of the nipple were performed with 33 G needles (Hamilton, 7803-05) and a volume of 40 μl per gland. […]
Mammary gland tissue was fixed in 10% neutral buffered formalin (EMD Millipore, MR0458682) at 4° C. overnight. […] Incubation with secondary antibodies [(donkey anti-Rat 647 (Thermo-Invitrogen; A48272) and donkey anti-Rabbit 488 (Thermo-Invitrogen; A32790)] was performed for 2 h at room temperature. Sections were washed with 0.3% triton in PBS for 30 min (×3) at room temperature and mounted using flouromount-G (Southern Biotech, 0100-01). Image acquisition was performed using Zeiss Axio Imager Microscope. Macros were generated to quantify lumen milk integrated density per alveolus using Image J.

SMILES | γH2AX in CK8+ luminal cells [1] | nuclei number of polyploid cells generated [2] | decrease in milk production (IHC, milk integrated density per alveolus) [3] [%]
COc1cccc2c1C(=O)c1c(O)c3c(c(O)c1C2=O)C[C@@](O)(C(=O)CO)C[C@@H]3O[C@H]1C[C@H](N)[C@H](O)[C@H](C)O1 [doxorubicin] | Increased | generated both mono- and binucleated polyploid cells | 
C=CCn1c(=O)c2cnc(Nc3ccc(N4CCN(C)CC4)cc3)nc2n1-c1cccc(C(C)(C)O)n1 [Mk-1775] |  |  | 21
